Data as given in ChEMBL document CHEMBL4312031, “Discovery of candesartan cilexetic as a novel neddylation inhibitor for suppressing tumor growth” (Eur J Med Chem, 2020).
Activity calls are given as the source filed them. No cut-off for these calls is given here.

Legend:
A549 [1] = assay: Cell cycle arrest in human A549 cells assessed as accumulation at S phase at 75 uM measured after 24 hrs by propidium iodide/RNase A staining based flow cytometry analysis (reference value: 21.54 %); type: functional
[2] = molecular target: T1, NEDD8-conjugating enzyme Ubc12 (Homo sapiens) (UniProt P61081); assay: Inhibition of UBC12 in human A549 cells assessed as decrease in Cullin4a-Nedd8 adduct level measured after 6 to 12 hrs by Western blot analysis; type: cell-based
T1 sequence (whole entry): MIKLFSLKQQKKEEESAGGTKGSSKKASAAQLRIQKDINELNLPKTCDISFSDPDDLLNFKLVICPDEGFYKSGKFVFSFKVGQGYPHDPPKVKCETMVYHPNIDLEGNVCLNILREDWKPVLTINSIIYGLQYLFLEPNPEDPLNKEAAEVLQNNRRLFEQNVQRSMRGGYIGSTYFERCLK

A549 [3] = assay: Induction of apoptosis in human A549 cells assessed as late apoptotic cells at 25 uM measured after 48 hrs by AnnexinV-FITC/propidium iodide staining based FACS analysis (reference value: 1.71 %); type: functional
A549 [4] = assay: Inhibition of cullin-RING ligase in human A549 cells assessed as accumulation of p27 level at 50 to 125 uM and measured after 6 to 12 hrs by Western blot analysis; type: cell-based
A549 [5] = assay: Cell cycle arrest in human A549 cells assessed as accumulation at sub-G1 phase at 50 uM measured after 24 hrs by propidium iodide/RNase A staining based flow cytometry analysis (reference value: 0.89 %); type: functional
[6] = molecular target: T1, NEDD8-conjugating enzyme Ubc12 (Homo sapiens); assay: Inhibition of UBC12 in human A549 cells assessed as decrease in Cullin2-Nedd8 adduct level at 50 uM measured after 6 to 12 hrs by Western blot analysis; type: cell-based
A549 [7] = assay: Induction of apoptosis in human A549 cells assessed as early apoptotic cells at 50 uM measured after 48 hrs by AnnexinV-FITC/propidium iodide staining based FACS analysis (reference value: 2.19 %); type: functional
[8] = molecular target: T2, NEDD8/NEDD8-conjugating enzyme Ubc12 (Homo sapiens) (UniProt P61081+Q15843); assay: Inhibition of Nedd8-Ubc12 (unknown origin) assessed as decrease in Ubc12-Nedd8 adduct formation at 50 uM preincubated for 10 mins followed by ATP addition and measured after 30 mins by immunoblot analysis; type: protein-complex assay
A549 [9] = assay: Effect on SUMO1 level in human A549 cells by Western blot analysis; type: functional, cell-based
EKVX = assay: Antiproliferative activity against human EKVX cells measured after 48 hrs by CCK8 assay; type: functional, cell-based
A549 [10] = assay: Antitumor activity against human A549 cells xenografted in nude mouse assessed as decrease in tumor size at 30 mg/kg, ip qd measured after 22 days; type: functional, organism-based
[11] = molecular target: T1, NEDD8-conjugating enzyme Ubc12 (Homo sapiens); assay: Inhibition of UBC12 in human A549 cells assessed as decrease in Cullin4a-Nedd8 adduct level at 50 uM measured after 6 to 12 hrs by Western blot analysis; type: cell-based
A549 [12] = assay: Cell cycle arrest in human A549 cells assessed as accumulation at sub-G1 phase at 75 uM measured after 24 hrs by propidium iodide/RNase A staining based flow cytometry analysis (reference value: 0.89 %); type: functional
A549 [13] = assay: Effect on Ub-modified protein level in human A549 cells by Western blot analysis; type: functional, cell-based
[14] = molecular target: T3, NEDD8-conjugating enzyme UBE2F (Homo sapiens) (UniProt Q969M7); assay: Inhibition of UBE2F in human A549 cells assessed as decrease in Cullin5-Nedd8 adduct level measured after 6 to 12 hrs by Western blot analysis; type: cell-based
T3 sequence (whole entry): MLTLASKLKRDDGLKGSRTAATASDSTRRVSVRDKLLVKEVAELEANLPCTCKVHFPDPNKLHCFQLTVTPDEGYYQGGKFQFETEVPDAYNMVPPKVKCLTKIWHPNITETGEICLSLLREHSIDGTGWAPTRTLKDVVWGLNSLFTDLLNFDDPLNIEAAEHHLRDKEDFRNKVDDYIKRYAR

A549 [15] = assay: Inhibition of colony formation in human A549 cells measured after 10 days; type: functional, cell-based
A549 [16] = assay: Induction of apoptosis in human A549 cells assessed as late apoptotic cells at 75 uM measured after 48 hrs by AnnexinV-FITC/propidium iodide staining based FACS analysis (reference value: 1.71 %); type: functional
MCF7 = assay: Antiproliferative activity against human MCF7 cells measured after 48 hrs by CCK8 assay; type: functional, cell-based; details: MCF7, 48 h
A549 [17] = assay: Induction of apoptosis in human A549 cells assessed as early apoptotic cells at 75 uM measured after 48 hrs by AnnexinV-FITC/propidium iodide staining based FACS analysis (reference value: 2.19 %); type: functional
[18] = molecular target: T2, NEDD8/NEDD8-conjugating enzyme Ubc12 (Homo sapiens); assay: Competitive inhibition of Nedd8-Ubc12 (unknown origin) adduct formation assessed as decrease in Ubc12-Nedd8 adduct formation at 50 uM preincubated for 10 mins followed by ATP addition and measured after 30 mins by immunoblot analysis; type: protein-complex assay
[19] = molecular target: T3, NEDD8-conjugating enzyme UBE2F (Homo sapiens); assay: Inhibition of UBE2F in human A549 cells assessed as decrease in Cullin5-Nedd8 adduct level at 50 uM measured after 6 to 12 hrs by Western blot analysis; type: cell-based
[20] = molecular target: SUMO-conjugating enzyme UBC9 (Homo sapiens) (UniProt P63279); assay: Inhibition of Ubc9 in human A549 cells assessed as reduction in protein sumoylation by measuring Ubc9-Sumo adduct formation at 50 to 100 uM by Western blot analysis; type: cell-based
SUMO-conjugating enzyme UBC9 (Homo sapiens), sequence (P63279 whole entry): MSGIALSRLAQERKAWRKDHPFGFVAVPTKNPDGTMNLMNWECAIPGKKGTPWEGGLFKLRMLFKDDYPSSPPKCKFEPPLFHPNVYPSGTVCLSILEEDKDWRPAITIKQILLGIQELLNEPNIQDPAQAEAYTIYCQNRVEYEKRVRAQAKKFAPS

[21] = molecular target: T1, NEDD8-conjugating enzyme Ubc12 (Homo sapiens); assay: Inhibition of UBC12 in human A549 cells assessed as decrease in Cullin1-Nedd8 adduct level measured after 6 to 12 hrs by Western blot analysis; type: cell-based
16HBE14o- = assay: Cytotoxicity against human 16HBE cells after 48 hrs by CCK-8 assay; type: cell-based
[22] = molecular target: T4, Ubiquitin-conjugating enzyme E2 C (Homo sapiens) (UniProt O00762); assay: Inhibition of UbcH10 in human A549 cells assessed as reduction in protein ubiquitination by measuring Ubc10-ub adduct formation at 50 to 100 uM by Western blot analysis; type: cell-based
T4 sequence (whole entry): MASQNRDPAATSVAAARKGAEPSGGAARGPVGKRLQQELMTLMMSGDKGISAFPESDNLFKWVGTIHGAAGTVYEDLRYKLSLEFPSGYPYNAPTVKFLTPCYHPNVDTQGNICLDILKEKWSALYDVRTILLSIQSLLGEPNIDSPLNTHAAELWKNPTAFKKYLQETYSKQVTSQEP

CCOc1nc2cccc(C(=O)OC(C)OC(=O)OC3CCCCC3)c2n1Cc1ccc(-c2ccccc2-c2nn[nH]n2)cc1 (stereo not given) [CANDESARTAN CILEXETIL]
Activity (A549 [1]): 19.74% | inhibition [2]: Dose-dependent effect | Activity (A549 [3]): 5.5% | inhibition (A549 [4]): Active | Activity (A549 [5]): 20.35% | inhibition [6]: Active | Activity (A549 [7]): 11.77% | inhibition [8]: 100% | Activity (A549 [9]): inactive | IC50 (EKVX): > 100 µM | Activity (A549 [10]): Active | inhibition [11]: Active | Activity (A549 [12]): 30.45% | Activity (A549 [13]): Active | inhibition [14]: Dose-dependent effect | inhibition (A549 [15]): Dose-dependent effect | Activity (A549 [16]): 14.26% | IC50 (MCF7): > 100 µM | Activity (A549 [17]): 36.64% | inhibition [18]: Active | inhibition [19]: Active | inhibition [20]: inactive | inhibition [21]: Dose-dependent effect | IC50 (16HBE14o-): > 100 µM | inhibition [22]: inactive
